Results: patent US10414797B2, “Gelatinase inhibitors and use thereof” (Iproteos S.L, priority 2015, dated 2019)
Where a SMILES comes first, the peptide text is derived from it. [ ]: non-standard residue; d: D form. The star is where a group is joined. ξ: configuration not given here. NMeW = CN[C@@H](Cc1c[nH]c2ccccc12)C(=O)O; Benzoyl(3,5-F2) = O=C(c1cc(F)cc(F)c1)*; NMeIle(3ξ) = CCC(C)[C@H](NC)C(=O)O; NMeF = CN[C@@H](Cc1ccccc1)C(=O)O; NMeQ = CN[C@@H](CCC(N)=O)C(=O)O; NMeL = CN[C@@H](CC(C)C)C(=O)O; Dab = NCC[C@H](N)C(=O)O; Hexanoyl = CCCCCC(=O)*; Butyryl = CCCC(=O)*; Bz = O=C(c1ccccc1)*; NHOH = ON*

What was measured:
Assay type in all cases: biochemical
MMP-2 = MMP-2 (Homo sapiens (Human), UniProt P08253); assay: MMP-2 inhibition assay (fluorimetric, DQ gelatin substrate); details: recombinant MMP-2 (CHO cells) 85 ng/mL, DQ gelatin 50 μg/mL, 2 hours at room temperature, pH 7.6
Procedure: (§1) All the experiments were done in 1× reaction buffer, which was obtained from a 10× reaction buffer solution. The content of the 10× reaction buffer was: 50 mL of 0.5 M Tris-HCl, 1.5 M NaCl, 50 mM CaCl2 and 2 mM sodium azide at pH 7.6. To obtain the 1× reaction buffer 4 mL of the 10× reaction buffer were diluted in 36 mL of H2O.
Recombinant MMP-2 expressed in Chinese hamster ovary (CHO) cells was obtained from Merck-Millipore (catalog number PF023-5UG). DQ gelatin from pig skin fluorescein conjugated (MMP-2 substrate) was obtained from Life Technologies (catalog number E12055).
Preparation of the MMP-2 for the activity assay: MMP-2 was provided as a stock solution (0.1 mg/mL). The enzyme was diluted in 1× reaction buffer to a final concentration of 5 μg/mL.
Preparation of the DQ gelatin (substrate) solution for the activity assay: the solid form of the substrate was dissolved in water in order to obtain a stock solution of 1 mg/mL.
Procedure: The enzymatic assays were performed in 96-well microtiter plate, which allowed simultaneous monitoring of multiple reactions. For each reaction, 86.3 μL of 1× reaction buffer (pH 7.6), 1.7 μL of MMP-2 (final concentration 85 ng/mL) and 2 μL of the corresponding new compound were added to each well. A stock solution of new compound was prepared in DMSO (100 mM), and dilutions were prepared from this stock solution with DMSO. Finally, to the mixture contained in each well 10 μL of the substrate were added (final concentration 50 μg/mL). The reaction was incubated for 2 hours at room temperature in an orbital shaker (100 rpm).
The inhibitory activity of the new compound was measured fluorimetrically. The excitation and emission wavelengths were 483 and 525 nm, respectively.
Inhibitory activity at several concentration points (ranging from 100 pM to 200 μM MMP) were measured for each compound. The inhibitory activity on MMP-2 and MMP-9 was calculated according to eq 1. For each new compound, the fluorescence in the presence (a) and in the absence (b) of the corresponding MMP was measured. The maximum fluorescence (0% inhibitory activity) was obtained from a sample of the corresponding MMP in the absence of inhibitory compounds. To estimate the inhibitory potency of the novel compounds, activities were plotted against the log concentration of the compound, adjusting to a sigmoid curve using GraphPad Prism software, and the IC50 value, defined as the concentration of compound required to inhibit 50% of the corresponding MMP activity, was determined from resulting curve.
a corresponds to fluorescence intensity in the presence of substrate+test compound+MMP
b corresponds to the fluorescence intensity in the presence of substrate+tested compound
c corresponds to the fluorescence intensity in the presence of substrate+MMP
d corresponds to the fluorescence intensity of the presence of substrate

MMP-1 = MMP-1 (Homo sapiens (Human), UniProt P03956); assay: MMP-1 inhibition assay (fluorogenic peptide substrate); details: recombinant MMP-1 5.52 nM, Mca-PLGL-Dpa-AR-NH2 10 μM, 4 hours at room temperature; tested at 1, 10, 100 and 200 μM
Procedure: as §1
Recombinant MMP-1 expressed in E. Coli was obtained from Enzo Life Sciences (catalog number BML-SE180). Mca-PLGL-Dpa-AR-NH2 (fluorogenic peptide substrate) was obtained from R&D Systems (catalog number ES001).
Preparation of the MMP-1 for the activity assay: MMP-1 was provided as a stock solution (0.55 mg/mL). The enzyme was diluted in 1× reaction buffer to a final concentration of 276 nM.
MMP-1 peptide substrate was provided as a stock solution in DMSO (6 mM). For the assay, the substrate was diluted 1× reaction buffer to a concentration of 100 μM.
Procedure: The enzymatic assays were performed in 96-well microtiter plate, which allowed simultaneous monitoring of multiple reactions. For each reaction, 86 μL of 1× reaction buffer (pH 7.6), 2 μL of MMP-1 (final concentration 5.52 nM) and 2 μL of the corresponding new compound were added to each well. A stock solution of the new compound was prepared in DMSO (100 mM), and dilutions were prepared from this stock solution with DMSO. Finally, to the mixture contained in each well 10 μL of the substrate were added (final concentration 10 μM). The reaction was incubated for 4 hours at room temperature in an orbital shaker (100 rpm).
(§2) The inhibitory activity of the new compound was measured fluorimetrically. The excitation and emission wavelengths were 320 and 405 nm, respectively.
(§3) Inhibitory activity at several concentration points (1, 10, 100 and 200 μM) were measured for each compound. The inhibitory activity on MMP-1, MMP-3 and MMP-7 was calculated according to eq 1 and The IC50 value was calculated as explained above for MMP-2 and MMP-9.

MMP-3 = MMP-3 (Homo sapiens (Human), UniProt P08254); assay: MMP-3 inhibition assay (fluorogenic peptide substrate); details: recombinant MMP-3 7.7 nM, Mca-RPKPVE-Nval-WRK(Dnp)-NH2 10 μM, 4 hours at room temperature; tested at 1, 10, 100 and 200 μM
Procedure: as §1
Recombinant MMP-3 expressed in E. Coli was obtained from Merck-Millipore (catalog number 44217). Mca-RPKPVE-Nval-WRK(Dnp)-NH2 (fluorogenic peptide substrate) was obtained from R&D Systems (catalog number ES002).
Preparation of the MMP-3 for the activity assay: MMP-3 was provided as a stock solution (0.1 mg/mL). The enzyme was diluted in water to a final concentration of 0.005 mg/mL.
MMP-3 peptide substrate was provided as a stock solution in DMSO (4.5 mM). For the assay, the substrate was diluted 1× reaction buffer to a concentration of 100 μM.
Procedure: The enzymatic assays were performed in 96-well microtiter plate, which allowed simultaneous monitoring of multiple reactions. For each reaction, 84.6 μL of 1× reaction buffer (pH 7.6), 3.4 μL of MMP-3 (final concentration 7.7 nM) and 2 μL of the corresponding new compound were added to each well. A stock solution of new compound was prepared in DMSO (100 mM), and dilutions were prepared from this stock solution with DMSO. Finally, to the mixture contained in each well 10 μL of the substrate were added (final concentration 10 μM). The reaction was incubated for 4 hours at room temperature in an orbital shaker (90 rpm).
as §2, §3

Chain of MMP-1 (P03956 100-269): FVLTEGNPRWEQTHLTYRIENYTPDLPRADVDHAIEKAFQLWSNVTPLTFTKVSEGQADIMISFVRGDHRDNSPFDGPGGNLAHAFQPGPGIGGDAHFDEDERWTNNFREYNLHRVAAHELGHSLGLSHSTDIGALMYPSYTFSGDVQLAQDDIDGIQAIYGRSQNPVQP
Chain of MMP-3 (P08254 100-477): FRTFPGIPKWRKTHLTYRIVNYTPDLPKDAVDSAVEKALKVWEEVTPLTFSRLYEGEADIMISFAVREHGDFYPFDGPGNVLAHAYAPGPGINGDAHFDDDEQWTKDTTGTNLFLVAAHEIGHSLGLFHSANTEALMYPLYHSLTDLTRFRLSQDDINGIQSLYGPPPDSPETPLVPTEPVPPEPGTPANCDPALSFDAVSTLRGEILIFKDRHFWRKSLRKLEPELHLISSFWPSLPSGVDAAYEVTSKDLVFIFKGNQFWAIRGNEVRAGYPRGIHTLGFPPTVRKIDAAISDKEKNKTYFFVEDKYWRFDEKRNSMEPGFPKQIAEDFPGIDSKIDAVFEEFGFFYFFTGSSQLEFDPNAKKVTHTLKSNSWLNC
Chain of MMP-2 (P08253 110-660): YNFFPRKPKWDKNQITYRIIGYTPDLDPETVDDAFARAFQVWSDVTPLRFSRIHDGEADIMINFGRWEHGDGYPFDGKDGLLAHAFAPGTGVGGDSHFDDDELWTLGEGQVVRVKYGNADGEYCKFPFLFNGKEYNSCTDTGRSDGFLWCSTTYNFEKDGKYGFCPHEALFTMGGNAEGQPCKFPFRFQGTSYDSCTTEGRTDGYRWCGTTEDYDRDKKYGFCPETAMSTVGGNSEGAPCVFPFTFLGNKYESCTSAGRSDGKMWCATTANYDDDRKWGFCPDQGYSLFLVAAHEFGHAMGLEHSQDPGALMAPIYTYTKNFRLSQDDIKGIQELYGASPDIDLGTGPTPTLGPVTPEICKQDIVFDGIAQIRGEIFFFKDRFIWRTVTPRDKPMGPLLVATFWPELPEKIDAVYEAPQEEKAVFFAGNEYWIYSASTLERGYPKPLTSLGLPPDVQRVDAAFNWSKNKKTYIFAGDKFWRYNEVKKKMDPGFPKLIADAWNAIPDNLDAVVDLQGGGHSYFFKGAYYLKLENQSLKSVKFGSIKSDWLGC

Row | SMILES | IC50 (MMP-2) | IC50 (MMP-1) | IC50 (MMP-3) | MMP-1 IC50 (MMP-1) | MMP-3 IC50 (MMP-3)
1 | CCCCCC(=O)N1CCC[C@H]1C(=O)N(C)[C@H](C(=O)N[C@@H](CCNC(=O)c1ccccc1)C(=O)NO)C(C)CC (stereo partly drawn) [Example 15, (2S)—N-[(1S)-1-[[(1S)-3-benzamido-1-(hydroxycarbamoyl)propyl]carbamoyl]-2-methyl-butyl]-N-methyl-1-hexanoyl-pyrrolidine-2-carboxamide] (Hexanoyl-Pro-[NMeIle(3ξ)]-[Dab](Bz)-{NHOH}) | 0.285 µM | 10.8 µM | 9.89 µM | – | –
2 | CCC(C)[C@@H](C(=O)N[C@@H](CCNC(=O)c1cc(F)cc(F)c1)C(=O)NO)N(C)C(=O)[C@@H]1CCCN1C(=O)CCN(C)C(C)=O (stereo partly drawn) [Example 13, (2S)-1-[3-[acetyl(methyl)amino]propanoyl]-N-[(1S)-1-[[(1S)-3-[(3,5-difluorobenzoyl)amino]-1-(hydroxycarbamoyl)propyl]carbamoyl]-2-methyl-butyl]-N-methyl-pyrrolidine-2-carboxamide] | 1.15 µM | 200 µM | 200 µM | – | –
3 | CC(=O)N1CCC[C@H]1C(=O)N[C@@H](CCC(N)=O)C(=O)N[C@@H](Cc1c[nH]c2ccccc12)C(=O)NO [Example C17, (2S)-2-[[(2S)-1-acetylpyrrolidine-2-carbonyl)amino]-N-[(1S)-2-(hydroxyamino)-1-(1H-indol-3-ylmethyl)-2-oxo-ethyl]pentanediamide, reference compound] (Ac-Pro-Gln-Trp-{NHOH}) | 110 µM | 6.1 µM | 3.1 µM | – | –
4 | CCC(C)[C@@H](C(=O)N[C@@H](CCNC(=O)c1cc(F)cc(F)c1)C(=O)NO)N(C)C(=O)[C@@H]1CCCN1C(=O)[C@H](Cc1ccccc1)N(C)C(C)=O (stereo partly drawn) [Example 11, (2 S)-1-[(2S)-2-[acetyl(methyl)amino]-3-phenyl-propanoyl]-N-[(1S)-1-[[(1S)-3-[(3,5-difluorobenzoyl)amino]-1-(hydroxycarbamoyl)propyl]carbamoyl]-2-methyl-butyl]-N-methyl-pyrrolidine-2-carboxamide] (Ac-[NMeF]P[NMeIle(3ξ)][Dab](Benzoyl(3,5-F2))-{NHOH}) | 0.174 µM | 9.13 µM | 200 µM | – | –
5 | CC(=O)N1CCC[C@H]1C(=O)N(C)[C@@H](CCC(N)=O)C(=O)N[C@@H](Cc1c[nH]c2ccccc12)C(=O)NO [Example C20, (2S)-2-[[(2S)-1-acetylpyrrolidine-2-carbonyl]-methyl-amino]-N-[(1S)-2-(hydroxyamino)-1-(1H-indol-3-ylmethyl)-2-oxo-ethyl]pentanediamide, reference compound] (Ac-Pro-[NMeQ]-Trp-{NHOH}) | 53 µM | > 2000 µM | > 2000 µM | – | –

Further compounds by falling IC50 (MMP-2), results first:

Row | IC50 (MMP-2) | IC50 (MMP-1) | IC50 (MMP-3) | MMP-1 IC50 (MMP-1) | MMP-3 IC50 (MMP-3) | SMILES
6 | 0.202 µM | – | 30.1 µM | <1 µM | – | CCC(C)[C@@H](C(=O)N[C@@H](CCNC(=O)c1ccc(F)cc1)C(=O)NO)N(C)C(=O)[C@@H]1CCCN1C(C)=O (stereo partly drawn) [Example 1, (2S)-1-acetyl-N-[(1S)-1-[[(1S)-3-[(4-fluorobenzoyl)amino]-1-(hydroxycarbamoyl)propyl]carbamoyl]-2-methyl-butyl]-N-methyl-pyrrolidine-2-carboxamide]
7 | 0.159 µM | 24.7 µM | 22.5 µM | – | – | CCCCCC(=O)N1CC(F)(F)C[C@H]1C(=O)N(C)[C@H](C(=O)N[C@@H](CCNC(=O)c1cc(F)cc(F)c1)C(=O)NO)C(C)CC (stereo partly drawn) [Example 7, (2S)—N-[(1S)-1-[[(1S)-3-[(3,5-difluorobenzoyl)amino]-1-(hydroxycarbamoyl)propyl]carbamoyl]-2-methyl-butyl]-4,4-difluoro-1-hexanoyl-N-methyl-pyrrolidine-2-carboxamide]
8 | 0.116 µM | 6.07 µM | – | – | <1 µM | CCCC(=O)N(C)[C@@H](Cc1c[nH]c2ccccc12)C(=O)N(C)[C@@H](CC(C)C)C(=O)N1CCC[C@H]1C(=O)N(C)[C@H](C(=O)N[C@@H](CCNC(=O)c1cc(F)cc(F)c1)C(=O)NO)C(C)CC (stereo partly drawn) [Example 14, (2S)-1-[(2S)-2-[[(2S)-2-[butanoyl(methyl)amino]-3-(1H-indol-3-yl)propanoyl]-methyl-amino]-4-methyl-pentanoyl]-N-[(1S)-1-[[(1S)-3-[(3,5-difluorobenzoyl)amino]-1-(hydroxycarbamoyl)propyl]carbamoyl]-2-methyl-butyl]-N-methyl-pyrrolidine-2-carboxamide] (Butyryl-[NMeW][NMeL]P[NMeIle(3ξ)][Dab](Benzoyl(3,5-F2))-{NHOH})
9 | 0.081 µM | 6.82 µM | 25.4 µM | – | – | CCCCCC(=O)N1CCC[C@H]1C(=O)N(C)[C@H](C(=O)N[C@@H](CCNC(=O)c1cc(F)cc(F)c1)C(=O)NO)C(C)CC (stereo partly drawn) [Example 3, (2S)—N-[(1S)-1-[[(1S)-3-[(3,5-difluorobenzoyl)amino]-1-(hydroxycarbamoyl)propyl]carbamoyl]-2-methyl-butyl]-1-hexanoyl-N-methyl-pyrrolidine-2-carboxamide]
10 | 0.062 µM | 4.73 µM | 13.3 µM | – | – | CCCC(=O)N1CCC[C@H]1C(=O)N(C)[C@H](C(=O)N[C@@H](CCNC(=O)c1cc(F)cc(F)c1)C(=O)NO)C(C)CC (stereo partly drawn) [Example 4, (2S)-1-butanoyl-N-[(1S)-1-[[(1S)-3-[(3,5-difluorobenzoyl)amino]-1-(hydroxycarbamoyl)propyl]carbamoyl]-2-methyl-butyl]-N-methyl-pyrrolidine-2-carboxamide]
11 | 0.037 µM | 6.61 µM | 160 µM | – | – | CCC(C)[C@@H](C(=O)N[C@@H](CCNC(=O)c1cc(F)cc(F)c1)C(=O)NO)N(C)C(=O)[C@@H]1CC(F)(F)CN1C(=O)CCCOc1ccccc1 (stereo partly drawn) [Example 10, (2S)—N-[(1S)-1-[[(1S)-3-[(3,5-difluorobenzoyl)amino]-1-(hydroxycarbamoyl)propyl]carbamoyl]-2-methyl-butyl]-4,4-difluoro-N-methyl-1-(4-phenoxybutanoyl)pyrrolidine-2-carboxamide]
